*1 amine or outer side, *2 acyl side, *3 side chain or, on linkers, in order; H or OH if unused. Where a SMILES comes first, the peptide text is derived from it. Bridges are numbered along the chain shown (N, C = ends). Roman numbers before positions name the chains, in order. Side-chain parts run from the residue outwards. [ ]: non-standard residue; d: D form. The star is where a group is joined. C18 diacid = O=C(O)CCCCCCCCCCCCCCCCC(=O)*; γGlu = O=C(O)[C@H](CCC(=O)[*:2])N[*:1]; Desaminohistidyl = O=C(CCc1c[nH]cn1)*; Ac4c = NC1(C(=O)O)CCC1; AEEA = NCCOCCOCC(=O)O; Aib = CC(C)(N)C(=O)O
What was measured:
[1] = Assay (V): chemical stability assessment by RP-UPLC; assay type: physicochemical; conditions: 14 days at 37° C. in phosphate buffer (pH 7.3)
Experimental: Assay (V): Chemical Stability Assessment
The purpose of this assay is to assess the chemical stability of the GLP-1 derivatives of the present invention in aqueous solutions.
Chemical stability of GLP-1 derivatives may be investigated by RP-UPLC separation and UV detection. Lyophilized samples are dissolved in a 8 mM Phosphate buffer pH 8.6, followed by adjustment to pH 7.3 using HCl to a final concentration of 333 μM. Samples are incubated for 14 days at 5° C. and 37° C. followed by RP-UPLC analysis. Purity is defined as the area percentage of the main peak in relation to the total area of all integrated peaks in each chromatogram. Purity loss, also referred to herein as chemical degradation, after 14 days at 37° C. is determined as the difference in purity between the samples incubated at 5° C. and 37° C., divided by the purity of the sample after incubation for 14 days at 5° C.
RP-UPLC analysis is performed using a Waters BEH130 2.1 mm×150 mm, 1.7 μm column operated at 50° C. and a flow rate of 0.4 mL/min using a mobile phase system consisting of A: 0.05% TFA in MQ-water, and B: 0.05% TFA in Acetonitrile. UV-detection is performed at 215 nm. The typical gradient profile used for most of the samples is shown below.
For some individual derivatives eluting at substantially different retention times compared with the majority of derivatives, some adjustments to the gradient profile are made to better enable purity assessment comparison across samples.

[2] = target: T1, human GLP-1 receptor (Homo sapiens, UniProt P43220); assay: Assay (II)(a): GLP-1 receptor binding, [125I]GLP-1 displacement, SPA on BHK membranes; conditions: displacement of [125I]GLP-1, membranes with human GLP-1 receptor; read-out: IC50 GLP-1R
T1 construct: expressed in transfected cells; host or cells: membranes of BHK cells, parent line BHKTS13, clone FCW467-12A
In short: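 Membranes from BHK cells expressing human GLP-1 receptor with WGA SPA beads, [125I]GLP-1(7-36)NH2 (480 pM added solution) and compound in HEPES pH 7.4 buffer with EGTA, MgCl2, Tween 20. Incubated 2 h at 30° C; SPA counts fitted by non-linear regression to IC50 in nM.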

T1 sequence (P43220 24-463): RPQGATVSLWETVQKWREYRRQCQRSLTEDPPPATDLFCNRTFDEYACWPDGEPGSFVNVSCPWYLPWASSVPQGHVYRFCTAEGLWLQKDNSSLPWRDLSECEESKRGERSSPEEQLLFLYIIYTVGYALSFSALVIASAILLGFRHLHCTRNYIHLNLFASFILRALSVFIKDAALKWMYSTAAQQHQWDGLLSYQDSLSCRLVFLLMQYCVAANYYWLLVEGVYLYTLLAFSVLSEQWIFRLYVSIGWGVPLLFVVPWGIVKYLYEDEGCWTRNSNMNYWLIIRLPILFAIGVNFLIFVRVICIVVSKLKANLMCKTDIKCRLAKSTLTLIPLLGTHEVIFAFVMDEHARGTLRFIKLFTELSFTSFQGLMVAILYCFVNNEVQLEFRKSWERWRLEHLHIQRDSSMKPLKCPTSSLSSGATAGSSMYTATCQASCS

| Chemical stability: Chemical degradation over 14 days at 37° C. [1] | IC50 [2] | Structure (SMILES) |
| --- | --- | --- |
| 0.0% | 500 pM | CC[C@H](C)[C@H](NC(=O)[C@H](Cc1ccccc1)NC(=O)[C@H](CCC(=O)O)NC(=O)[C@H](CCCNC(=N)N)NC(=O)[C@H](C)NC(=O)[C@H](C)NC(=O)[C@H](CCC(N)=O)NC(=O)[C@H](CCC(=O)O)NC(=O)[C@H](CCC(=O)O)NC(=O)[C@H](CC(C)C)NC(=O)[C@H](Cc1ccc(O)cc1)NC(=O)[C@H](CCCNC(=N)N)NC(=O)[C@H](CO)NC(=O)[C@@H](NC(=O)[C@H](CC(=O)O)NC(=O)[C@H](CO)NC(=O)[C@@H](NC(=O)[C@H](Cc1ccccc1)NC(=O)[C@@H](NC(=O)CNC(=O)[C@H](Cc1c[nH]cn1)NC(=O)C(C)(C)NC(=O)CCc1c[nH]cn1)[C@@H](C)O)[C@@H](C)O)C(C)C)C(=O)N[C@@H](C)C(=O)N[C@@H](Cc1c[nH]c2ccccc12)C(=O)N[C@@H](CC(C)C)C(=O)N[C@@H](CC(C)C)C(=O)N[C@@H](CCCCNC(=O)CNC(=O)[C@H](CO)NC(=O)[C@H](CCC(=O)O)NC(=O)CNC(=O)[C@H](CO)NC(=O)CC[C@H](NC(=O)CC[C@H](NC(=O)CCCCCCCCCCCCCCCCC(=O)O)C(=O)O)C(=O)O)C(=O)N[C@H](C(N)=O)[C@@H](C)O [Example 7, N^ε34-[2-[[(2S)-2-[[(2S)-4-carboxy-2-[[2-[[(2S)-2-[[(4S)-4-carboxy-4-[[(4S)-4-carboxy-4-(17-carboxyheptadecanoylamino)butanoyl]amino]butanoyl]amino]-3-hydroxypropanoyl]amino]acetyl]amino]butanoyl]amino]-3-hydroxypropanoyl]amino]acetyl]-[Imp7,Aib8,His9,Arg18,Glu22,Arg26,Leu33,Thr35]-GLP-1-(7-35)-peptide amide] (I: Desaminohistidyl-[Aib]HGTFTSDVSRYLEEQAAREFIAWLLKT-NH2 / II: {C18 diacid-γGlu-γGlu}-SGESG; amide I:27-II:C) |
| 0.4% | 300 pM | CC[C@H](C)[C@H](NC(=O)[C@H](Cc1ccccc1)NC(=O)[C@H](CCC(=O)O)NC(=O)[C@H](CCCNC(=N)N)NC(=O)[C@H](C)NC(=O)[C@H](C)NC(=O)[C@H](CCCNC(=N)N)NC(=O)CNC(=O)[C@H](CCC(=O)O)NC(=O)[C@H](CC(C)C)NC(=O)[C@H](Cc1ccc(O)cc1)NC(=O)[C@H](CCCCN)NC(=O)[C@H](CO)NC(=O)[C@@H](NC(=O)[C@H](CC(=O)O)NC(=O)[C@H](CO)NC(=O)[C@@H](NC(=O)[C@H](Cc1ccccc1)NC(=O)[C@@H](NC(=O)CNC(=O)[C@H](Cc1c[nH]cn1)NC(=O)C1(NC(=O)CCc2c[nH]cn2)CCC1)[C@@H](C)O)[C@@H](C)O)C(C)C)C(=O)N[C@@H](C)C(=O)N[C@@H](Cc1c[nH]c2ccccc12)C(=O)N[C@@H](CC(C)C)C(=O)N[C@@H](CC(C)C)C(=O)N[C@@H](CCCCNC(=O)CNC(=O)[C@H](CO)NC(=O)[C@H](CCC(=O)O)NC(=O)CNC(=O)[C@H](CO)NC(=O)CC[C@H](NC(=O)CC[C@H](NC(=O)CCCCCCCCCCCCCCCCC(=O)O)C(=O)O)C(=O)O)C(=O)N[C@H](C(N)=O)[C@@H](C)O [Example 20, N^ε34-[2-[[(2S)-2-[[(2S)-4-carboxy-2-[[2-[[(2S)-2-[[(4S)-4-carboxy-4-[[(4S)-4-carboxy-4-(17-carboxyheptadecanoylamino)butanoyl]amino]butanoyl]amino]-3-hydroxypropanoyl]amino]acetyl]amino]butanoyl]amino]-3-hydroxypropanoyl]amino]acetyl]-[Imp7,Acb8,His9,Lys18,Arg23,Arg26,Leu33,Thr35]-GLP-1-(7-35)-peptide amide] (I: Desaminohistidyl-[Ac4c]HGTFTSDVSKYLEGRAAREFIAWLLKT-NH2 / II: {C18 diacid-γGlu-γGlu}-SGESG; amide I:27-II:C) |
| −0.3% | 400 pM | CC[C@H](C)[C@H](NC(=O)[C@H](Cc1ccccc1)NC(=O)[C@H](CCC(=O)O)NC(=O)[C@H](CCCNC(=N)N)NC(=O)[C@H](C)NC(=O)[C@H](C)NC(=O)[C@H](CCC(N)=O)NC(=O)[C@H](CCC(=O)O)NC(=O)[C@H](CCC(=O)O)NC(=O)[C@H](CC(C)C)NC(=O)[C@H](Cc1ccc(O)cc1)NC(=O)[C@H](CCCCN)NC(=O)[C@H](CO)NC(=O)[C@@H](NC(=O)[C@H](CC(=O)O)NC(=O)[C@H](CO)NC(=O)[C@@H](NC(=O)[C@H](Cc1ccccc1)NC(=O)[C@@H](NC(=O)CNC(=O)[C@H](Cc1c[nH]cn1)NC(=O)C(C)(C)NC(=O)CCc1c[nH]cn1)[C@@H](C)O)[C@@H](C)O)C(C)C)C(=O)N[C@@H](C)C(=O)N[C@@H](Cc1c[nH]c2ccccc12)C(=O)N[C@@H](CC(C)C)C(=O)N[C@@H](CC(C)C)C(=O)N[C@@H](CCCCNC(=O)CNC(=O)[C@H](CO)NC(=O)[C@H](CCC(=O)O)NC(=O)CNC(=O)[C@H](CO)NC(=O)CC[C@H](NC(=O)CC[C@H](NC(=O)CCCCCCCCCCCCCCCCC(=O)O)C(=O)O)C(=O)O)C(=O)N[C@H](C(N)=O)[C@@H](C)O [Example 3, N^ε34-[2-[[(2S)-2-[[(2S)-4-carboxy-2-[[2-[[(2S)-2-[[(4S)-4-carboxy-4-[[(4S)-4-carboxy-4-(17-carboxyheptadecanoylamino)butanoyl]amino]butanoyl]amino]-3-hydroxypropanoyl]amino]acetyl]amino]butanoyl]amino]-3-hydroxypropanoyl]amino]acetyl]-[Imp7,Aib8,His9,Lys18,Glu22,Arg26,Leu33,Thr35]-GLP-1-(7-35)-peptide amide] (I: Desaminohistidyl-[Aib]HGTFTSDVSKYLEEQAAREFIAWLLKT-NH2 / II: {C18 diacid-γGlu-γGlu}-SGESG; amide I:27-II:C) |
| 1.6% | 900 pM | CC[C@H](C)[C@H](NC(=O)[C@H](Cc1ccccc1)NC(=O)[C@H](CCC(=O)O)NC(=O)[C@H](CCCNC(=N)N)NC(=O)[C@H](C)NC(=O)[C@H](C)NC(=O)[C@H](CCC(N)=O)NC(=O)CNC(=O)[C@H](CCC(=O)O)NC(=O)[C@H](CC(C)C)NC(=O)[C@H](Cc1ccc(O)cc1)NC(=O)[C@H](CCCNC(=N)N)NC(=O)[C@H](CO)NC(=O)[C@@H](NC(=O)[C@H](CC(=O)O)NC(=O)[C@H](CO)NC(=O)[C@@H](NC(=O)[C@H](Cc1ccccc1)NC(=O)[C@@H](NC(=O)CNC(=O)[C@H](Cc1c[nH]cn1)NC(=O)C(C)(C)NC(=O)CCc1c[nH]cn1)[C@@H](C)O)[C@@H](C)O)C(C)C)C(=O)N[C@@H](C)C(=O)N[C@@H](Cc1c[nH]c2ccccc12)C(=O)N[C@@H](CC(C)C)C(=O)N[C@@H](CC(C)C)C(=O)N[C@@H](CCCCNC(=O)CNC(=O)[C@H](CO)NC(=O)[C@H](CCC(=O)O)NC(=O)CNC(=O)[C@H](CO)NC(=O)CC[C@H](NC(=O)CC[C@H](NC(=O)CCCCCCCCCCCCCCCCC(=O)O)C(=O)O)C(=O)O)C(=O)N[C@H](C(N)=O)[C@@H](C)O [Example 8, N^ε34-[2-[[(2S)-2-[[(2S)-4-carboxy-2-[[2-[[(2S)-2-[[(4S)-4-carboxy-4-[[(4S)-4-carboxy-4-(17-carboxyheptadecanoylamino)butanoyl]amino]butanoyl]amino]-3-hydroxypropanoyl]amino]acetyl]amino]butanoyl]amino]-3-hydroxypropanoyl]amino]acetyl]-[Imp7,Aib8,His9,Arg18,Arg26,Leu33,Thr35]-GLP-1-(7-35)-peptide amide] (I: Desaminohistidyl-[Aib]HGTFTSDVSRYLEGQAAREFIAWLLKT-NH2 / II: {C18 diacid-γGlu-γGlu}-SGESG; amide I:27-II:C) |
| 2.0% | 1000 pM | CC[C@H](C)[C@H](NC(=O)[C@H](Cc1ccccc1)NC(=O)[C@H](CCC(=O)O)NC(=O)[C@H](CCCNC(=N)N)NC(=O)[C@H](C)NC(=O)[C@H](C)NC(=O)[C@H](CCCNC(=N)N)NC(=O)CNC(=O)[C@H](CCC(=O)O)NC(=O)[C@H](CC(C)C)NC(=O)[C@H](Cc1ccc(O)cc1)NC(=O)[C@H](CCCCN)NC(=O)[C@H](CO)NC(=O)[C@@H](NC(=O)[C@H](CC(=O)O)NC(=O)[C@H](CO)NC(=O)[C@@H](NC(=O)[C@H](Cc1ccccc1)NC(=O)[C@@H](NC(=O)CNC(=O)[C@H](Cc1c[nH]cn1)NC(=O)[C@H](C)NC(=O)CCc1c[nH]cn1)[C@@H](C)O)[C@@H](C)O)C(C)C)C(=O)N[C@@H](C)C(=O)N[C@@H](Cc1c[nH]c2ccccc12)C(=O)N[C@@H](CC(C)C)C(=O)N[C@@H](CC(C)C)C(=O)N[C@@H](CCCCNC(=O)COCCOCCNC(=O)COCCOCCNC(=O)CC[C@H](NC(=O)CC[C@H](NC(=O)CC[C@H](NC(=O)CCCCCCCCCCCCCCCCC(=O)O)C(=O)O)C(=O)O)C(=O)O)C(=O)N[C@H](C(N)=O)[C@@H](C)O [Example 10, N^ε34-[2-[2-[2-[[2-[2-[2-[[(4S)-4-carboxy-4-[[(4S)-4-carboxy-4-[[(4S)-4-carboxy-4-(17-carboxyheptadecanoylamino)butanoyl]amino]butanoyl]amino]butanoyl]amino]ethoxy]ethoxy]acetyl]amino]ethoxy]ethoxy]acetyl]-[Imp7,His9,Lys18,Arg23,Arg26,Leu33,Thr35]-GLP-1-(7-35)-peptide amide] (Desaminohistidyl-AHGTFTSDVSKYLEGRAAREFIAWLLK([AEEA-AEEA-γGlu-γGlu-γGlu-C18 diacid])T-NH2) |

Source: patent publication US9988430B2, “Stable GLP-1 based GLP-1/glucagon receptor co-agonists” (Novo Nordisk A/S, priority 2014, dated 2018)
